According to PMC10337138 (Acta Neuropathologica Communications, 2023):

What was measured:
Conditions in all cases: 1 mM ATP; inhibitor
MAP4K4/HGK = MAP4K4/HGK (Homo sapiens, UniProt O95819)
Procedure: (§1) Kinase selectivity panel Kinome profiling was conducted by AssayQuant Technologies (Marlboro, MA) using Sox chromophore technology and Sox-based peptide substrates developed for human kinases in a 384-well format. Compounds were tested at 1 µM in the presence of 1 mM ATP.

RAF1 = RAF1 (Homo sapiens, UniProt P04049)
Procedure: as §1

KIT = KIT (Homo sapiens, UniProt P10721)
Procedure: as §1

CDK3/E1 = CDK3/E1 (Homo sapiens, UniProt Q00526)
Procedure: as §1

CSNK1D/CK1D = CSNK1D/CK1D (Homo sapiens, UniProt P48730)
Procedure: as §1

TTK = TTK (Homo sapiens, UniProt P33981)
Procedure: as §1

MAPK13/P38D = MAPK13/P38D (Homo sapiens, UniProt O15264)
Procedure: as §1

EPHB3 = EPHB3 (Homo sapiens, UniProt P54753)
Procedure: as §1

PRKAA2/AMPK211 = PRKAA2/AMPK211 (Homo sapiens, UniProt P54646)
Procedure: as §1

DCLK2/DCAML2 = DCLK2/DCAML2 (Homo sapiens, UniProt Q8N568)
Procedure: as §1

EPHA8 = EPHA8 (Homo sapiens, UniProt P29322)
Procedure: as §1

PRKAA1/AMPK121 = PRKAA1/AMPK121 (Homo sapiens, UniProt Q13131)
Procedure: as §1

INSRR = INSRR (Homo sapiens, UniProt P14616)
Procedure: as §1

EPHA5 = EPHA5 (Homo sapiens, UniProt P54756)
Procedure: as §1

PRKCI/PKCI = PRKCI/PKCI (Homo sapiens, UniProt P41743)
Procedure: as §1

PRKCB2/PKCB2 = molecular target: T1, PRKCB2/PKCB2 (Homo sapiens, UniProt P05771)
T1 construct: gene PRKCB
Procedure: as §1

NEK1 = NEK1 (Homo sapiens, UniProt Q96PY6)
Procedure: as §1

PRKD1 = PRKD1 (Homo sapiens, UniProt Q15139)
Procedure: as §1

CSNK1A1/CK1A1 = CSNK1A1/CK1A1 (Homo sapiens, UniProt P48729)
Procedure: as §1

AURKB/AURB = AURKB/AURB (Homo sapiens, UniProt Q96GD4)
Procedure: as §1

ULK3 = ULK3 (Homo sapiens, UniProt Q6PHR2)
Procedure: as §1

CDK6/D1 = CDK6/D1 (Homo sapiens, UniProt Q00534)
Procedure: as §1

JAK3(JH1) = JAK3(JH1) (Homo sapiens, UniProt P52333)
Procedure: as §1

TEC = TEC (Homo sapiens, UniProt P42680)
Procedure: as §1

PRKCD/CPKCD = PRKCD/CPKCD (Homo sapiens, UniProt Q05655)
Procedure: as §1

MARK1 = MARK1 (Homo sapiens, UniProt Q9P0L2)
Procedure: as §1

NEK3 = NEK3 (Homo sapiens, UniProt P51956)
Procedure: as §1

TNK2/ACK = TNK2/ACK (Homo sapiens, UniProt Q07912)
Procedure: as §1

RPS6KA1/RSK1 = RPS6KA1/RSK1 (Homo sapiens, UniProt Q15418)
Procedure: as §1

CSNK2A2/CK2A2 = CSNK2A2/CK2A2 (Homo sapiens, UniProt P19784)
Procedure: as §1

FGFR3 = FGFR3 (Homo sapiens, UniProt P22607)
Procedure: as §1

CDK5/P25 = CDK5/P25 (Homo sapiens, UniProt Q00535)
Procedure: as §1

PDGFRA = PDGFRA (Homo sapiens, UniProt P16234)
Procedure: as §1

IRAK4 = IRAK4 (Homo sapiens, UniProt Q9NWZ3)
Procedure: as §1

MNK2 = molecular target: T2, MNK2 (Homo sapiens, UniProt Q9HBH9)
T2 construct: gene MKNK2
Procedure: as §1

PDK1 = molecular target: T3, PDK1 (Homo sapiens, UniProt O15530)
T3 construct: gene PDPK1
Procedure: as §1

DCLK1/DCAML1 = DCLK1/DCAML1 (Homo sapiens, UniProt O15075)
Procedure: as §1

PAK3 = PAK3 (Homo sapiens, UniProt O75914)
Procedure: as §1

Chain of KIT (P10721 whole entry): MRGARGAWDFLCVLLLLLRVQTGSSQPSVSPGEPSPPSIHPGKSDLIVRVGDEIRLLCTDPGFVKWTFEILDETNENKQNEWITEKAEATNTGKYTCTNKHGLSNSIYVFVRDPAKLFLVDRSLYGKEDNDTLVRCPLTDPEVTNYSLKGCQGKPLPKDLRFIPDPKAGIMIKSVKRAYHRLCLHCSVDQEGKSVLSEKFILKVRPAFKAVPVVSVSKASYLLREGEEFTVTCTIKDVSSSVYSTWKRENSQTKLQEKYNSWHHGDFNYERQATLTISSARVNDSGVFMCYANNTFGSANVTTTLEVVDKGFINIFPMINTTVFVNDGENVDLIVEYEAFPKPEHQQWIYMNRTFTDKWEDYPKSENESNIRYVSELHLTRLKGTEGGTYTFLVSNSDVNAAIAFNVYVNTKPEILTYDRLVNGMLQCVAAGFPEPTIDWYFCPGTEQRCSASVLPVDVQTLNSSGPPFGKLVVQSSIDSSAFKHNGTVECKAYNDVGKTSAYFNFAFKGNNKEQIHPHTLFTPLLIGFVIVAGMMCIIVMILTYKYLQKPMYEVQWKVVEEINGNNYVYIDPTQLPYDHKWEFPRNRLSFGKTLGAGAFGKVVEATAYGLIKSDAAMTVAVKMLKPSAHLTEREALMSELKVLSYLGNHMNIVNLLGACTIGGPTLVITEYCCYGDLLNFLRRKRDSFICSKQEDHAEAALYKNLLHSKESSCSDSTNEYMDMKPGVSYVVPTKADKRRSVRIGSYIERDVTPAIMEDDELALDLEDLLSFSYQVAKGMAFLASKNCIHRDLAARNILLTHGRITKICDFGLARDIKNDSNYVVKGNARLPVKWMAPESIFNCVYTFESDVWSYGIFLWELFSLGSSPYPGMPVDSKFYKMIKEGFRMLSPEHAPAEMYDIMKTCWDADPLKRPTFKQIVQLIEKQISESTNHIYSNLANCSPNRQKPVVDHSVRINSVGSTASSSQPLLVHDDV
Chain of PRKAA2/AMPK211 (P54646 whole entry): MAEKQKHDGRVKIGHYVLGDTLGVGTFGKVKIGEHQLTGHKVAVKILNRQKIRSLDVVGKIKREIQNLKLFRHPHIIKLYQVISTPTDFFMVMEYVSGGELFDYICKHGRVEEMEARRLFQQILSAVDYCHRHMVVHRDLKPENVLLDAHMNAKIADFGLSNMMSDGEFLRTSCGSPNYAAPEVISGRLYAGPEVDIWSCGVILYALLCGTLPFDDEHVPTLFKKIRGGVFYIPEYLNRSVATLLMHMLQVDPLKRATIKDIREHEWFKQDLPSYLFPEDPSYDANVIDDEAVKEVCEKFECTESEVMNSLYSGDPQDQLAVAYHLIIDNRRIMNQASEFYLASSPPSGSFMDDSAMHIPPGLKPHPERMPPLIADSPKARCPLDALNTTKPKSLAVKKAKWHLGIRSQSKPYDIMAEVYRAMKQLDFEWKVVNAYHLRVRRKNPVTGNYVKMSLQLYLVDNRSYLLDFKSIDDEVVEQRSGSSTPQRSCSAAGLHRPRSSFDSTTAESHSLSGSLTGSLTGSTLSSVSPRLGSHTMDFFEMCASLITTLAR
Chain of PRKAA2/AMPK211 (P54619 whole entry partner): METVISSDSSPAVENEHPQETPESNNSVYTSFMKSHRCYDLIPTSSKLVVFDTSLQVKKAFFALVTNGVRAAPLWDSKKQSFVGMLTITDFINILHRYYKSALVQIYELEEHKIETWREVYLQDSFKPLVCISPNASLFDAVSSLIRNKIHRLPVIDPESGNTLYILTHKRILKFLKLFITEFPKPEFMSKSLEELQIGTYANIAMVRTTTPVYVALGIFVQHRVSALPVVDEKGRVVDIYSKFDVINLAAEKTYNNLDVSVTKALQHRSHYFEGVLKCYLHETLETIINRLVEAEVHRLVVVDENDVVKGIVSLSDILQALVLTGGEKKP
Chain of PRKAA2/AMPK211 (Q9Y478 whole entry partner): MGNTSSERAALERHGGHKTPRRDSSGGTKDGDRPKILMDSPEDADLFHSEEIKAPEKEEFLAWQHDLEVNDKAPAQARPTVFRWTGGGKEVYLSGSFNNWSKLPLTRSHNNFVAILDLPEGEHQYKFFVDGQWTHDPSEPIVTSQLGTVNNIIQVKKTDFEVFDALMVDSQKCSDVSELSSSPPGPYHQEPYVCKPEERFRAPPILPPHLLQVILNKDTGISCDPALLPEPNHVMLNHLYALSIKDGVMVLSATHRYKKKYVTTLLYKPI
Chain of MAP4K4/HGK (O95819 whole entry): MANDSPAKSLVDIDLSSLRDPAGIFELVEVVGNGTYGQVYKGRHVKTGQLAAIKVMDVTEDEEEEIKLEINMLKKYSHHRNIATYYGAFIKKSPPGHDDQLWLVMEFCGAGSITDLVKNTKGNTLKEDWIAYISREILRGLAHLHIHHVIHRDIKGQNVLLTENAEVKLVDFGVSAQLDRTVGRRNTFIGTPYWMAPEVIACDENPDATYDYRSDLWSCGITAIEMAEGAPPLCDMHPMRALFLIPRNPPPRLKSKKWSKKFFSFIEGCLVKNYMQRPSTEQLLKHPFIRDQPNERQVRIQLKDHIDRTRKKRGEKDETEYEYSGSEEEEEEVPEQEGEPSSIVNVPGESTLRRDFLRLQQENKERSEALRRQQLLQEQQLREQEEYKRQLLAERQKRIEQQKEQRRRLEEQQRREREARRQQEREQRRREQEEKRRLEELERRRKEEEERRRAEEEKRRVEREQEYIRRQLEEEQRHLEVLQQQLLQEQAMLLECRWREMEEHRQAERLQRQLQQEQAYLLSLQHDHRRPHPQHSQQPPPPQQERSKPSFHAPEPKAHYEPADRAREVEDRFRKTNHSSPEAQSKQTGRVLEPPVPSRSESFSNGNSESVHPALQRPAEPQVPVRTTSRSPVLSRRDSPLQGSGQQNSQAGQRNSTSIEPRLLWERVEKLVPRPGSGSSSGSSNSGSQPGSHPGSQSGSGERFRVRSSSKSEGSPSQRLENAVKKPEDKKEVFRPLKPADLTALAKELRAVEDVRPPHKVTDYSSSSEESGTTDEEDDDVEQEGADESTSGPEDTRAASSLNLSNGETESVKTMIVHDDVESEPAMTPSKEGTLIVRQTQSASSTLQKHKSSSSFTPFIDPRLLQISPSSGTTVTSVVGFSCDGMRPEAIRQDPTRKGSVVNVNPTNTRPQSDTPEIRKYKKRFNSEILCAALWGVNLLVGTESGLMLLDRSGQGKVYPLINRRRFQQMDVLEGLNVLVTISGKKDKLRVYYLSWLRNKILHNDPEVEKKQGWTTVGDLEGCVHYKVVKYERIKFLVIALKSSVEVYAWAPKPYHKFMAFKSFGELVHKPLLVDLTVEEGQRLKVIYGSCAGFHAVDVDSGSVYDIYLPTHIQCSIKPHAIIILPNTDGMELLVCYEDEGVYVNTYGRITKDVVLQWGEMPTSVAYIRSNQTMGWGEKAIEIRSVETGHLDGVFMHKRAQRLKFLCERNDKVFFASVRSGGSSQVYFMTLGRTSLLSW
Chain of CSNK2A2/CK2A2 (P19784 whole entry): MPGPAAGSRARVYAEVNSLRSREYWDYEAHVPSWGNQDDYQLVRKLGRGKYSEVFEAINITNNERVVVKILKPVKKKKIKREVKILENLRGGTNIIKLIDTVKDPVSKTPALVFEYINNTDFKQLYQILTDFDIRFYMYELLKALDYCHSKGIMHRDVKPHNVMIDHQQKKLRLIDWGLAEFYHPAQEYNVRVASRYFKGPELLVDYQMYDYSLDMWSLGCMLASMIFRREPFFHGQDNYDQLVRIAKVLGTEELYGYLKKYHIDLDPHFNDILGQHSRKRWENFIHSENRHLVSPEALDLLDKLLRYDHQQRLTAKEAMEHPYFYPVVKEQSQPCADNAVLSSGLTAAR
Chain of TTK (P33981 whole entry): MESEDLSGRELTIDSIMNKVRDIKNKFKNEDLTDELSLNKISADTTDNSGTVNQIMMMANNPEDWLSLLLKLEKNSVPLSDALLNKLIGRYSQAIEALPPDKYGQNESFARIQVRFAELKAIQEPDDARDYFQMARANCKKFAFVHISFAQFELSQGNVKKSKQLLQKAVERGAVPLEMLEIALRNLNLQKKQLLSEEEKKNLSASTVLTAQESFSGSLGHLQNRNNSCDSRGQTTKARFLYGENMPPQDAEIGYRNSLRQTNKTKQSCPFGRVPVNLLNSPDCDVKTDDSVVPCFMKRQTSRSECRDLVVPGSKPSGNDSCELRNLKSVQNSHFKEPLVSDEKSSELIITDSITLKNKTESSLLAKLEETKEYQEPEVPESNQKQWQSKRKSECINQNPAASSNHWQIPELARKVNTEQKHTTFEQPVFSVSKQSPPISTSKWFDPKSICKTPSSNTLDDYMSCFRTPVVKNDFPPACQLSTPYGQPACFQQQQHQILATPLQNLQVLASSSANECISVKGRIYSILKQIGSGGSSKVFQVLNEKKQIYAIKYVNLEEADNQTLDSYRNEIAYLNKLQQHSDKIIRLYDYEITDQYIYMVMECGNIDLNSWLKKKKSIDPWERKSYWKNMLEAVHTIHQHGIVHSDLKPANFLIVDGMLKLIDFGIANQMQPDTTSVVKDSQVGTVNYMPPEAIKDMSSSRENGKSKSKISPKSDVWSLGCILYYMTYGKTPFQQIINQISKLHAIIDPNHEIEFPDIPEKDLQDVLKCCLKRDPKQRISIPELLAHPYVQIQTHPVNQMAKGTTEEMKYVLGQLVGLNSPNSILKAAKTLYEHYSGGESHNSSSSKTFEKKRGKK
Chain of CSNK1A1/CK1A1 (P48729 whole entry): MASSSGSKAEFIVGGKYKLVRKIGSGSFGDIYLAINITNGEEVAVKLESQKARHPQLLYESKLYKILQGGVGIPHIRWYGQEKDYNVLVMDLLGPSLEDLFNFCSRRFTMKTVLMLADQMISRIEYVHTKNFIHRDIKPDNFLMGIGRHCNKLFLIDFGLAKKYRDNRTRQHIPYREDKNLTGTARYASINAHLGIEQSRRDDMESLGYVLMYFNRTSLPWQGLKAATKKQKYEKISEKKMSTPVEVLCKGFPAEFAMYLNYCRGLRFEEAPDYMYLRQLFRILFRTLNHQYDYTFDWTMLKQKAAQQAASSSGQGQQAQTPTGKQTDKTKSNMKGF

C=CC(=O)N1CCC[C@@H](n2nc(-c3ccc(Oc4ccccc4)cc3)c3c(N)ncnc32)C1 [Ibrutinib]
1 µM GBD00276 (ibrutinib), % inhibition (MAP4K4/HGK): -8.478% | 1 µM GBD00276 (ibrutinib), % inhibition (RAF1): -13.81% | 1 µM GBD00276 (ibrutinib), % inhibition (KIT): 2.778% | 1 µM GBD00276 (ibrutinib), % inhibition (CDK3/E1): 0.5426% | 1 µM GBD00276 (ibrutinib), % inhibition (CSNK1D/CK1D): 12.82% | 1 µM GBD00276 (ibrutinib), % inhibition (TTK): 9.751% | 1 µM GBD00276 (ibrutinib), % inhibition (MAPK13/P38D): 0.9944% | 1 µM GBD00276 (ibrutinib), % inhibition (EPHB3): 8.156% | 1 µM GBD00276 (ibrutinib), % inhibition (PRKAA2/AMPK211): 12.3% | 1 µM GBD00276 (ibrutinib), % inhibition (DCLK2/DCAML2): -15.45% | 1 µM GBD00276 (ibrutinib), % inhibition (EPHA8): 15.21% | 1 µM GBD00276 (ibrutinib), % inhibition (PRKAA1/AMPK121): 2.34% | 1 µM GBD00276 (ibrutinib), % inhibition (INSRR): 19.45% | 1 µM GBD00276 (ibrutinib), % inhibition (EPHA5): -3.884% | 1 µM GBD00276 (ibrutinib), % inhibition (PRKCI/PKCI): 5.685% | 1 µM GBD00276 (ibrutinib), % inhibition (PRKCB2/PKCB2): -15.35% | 1 µM GBD00276 (ibrutinib), % inhibition (NEK1): -6.252% | 1 µM GBD00276 (ibrutinib), % inhibition (PRKD1): -11.81% | 1 µM GBD00276 (ibrutinib), % inhibition (CSNK1A1/CK1A1): 2.433% | 1 µM GBD00276 (ibrutinib), % inhibition (AURKB/AURB): 7.598% | 1 µM GBD00276 (ibrutinib), % inhibition (ULK3): 2.341% | 1 µM GBD00276 (ibrutinib), % inhibition (CDK6/D1): 3.427% | 1 µM GBD00276 (ibrutinib), % inhibition (JAK3(JH1)): 10.34% | 1 µM GBD00276 (ibrutinib), % inhibition (TEC): 98.943% | 1 µM GBD00276 (ibrutinib), % inhibition (PRKCD/CPKCD): -43.15% | 1 µM GBD00276 (ibrutinib), % inhibition (MARK1): -2.409% | 1 µM GBD00276 (ibrutinib), % inhibition (NEK3): -16.35% | 1 µM GBD00276 (ibrutinib), % inhibition (TNK2/ACK): 31.95% | 1 µM GBD00276 (ibrutinib), % inhibition (RPS6KA1/RSK1): 9.099% | 1 µM GBD00276 (ibrutinib), % inhibition (CSNK2A2/CK2A2): -24.31% | 1 µM GBD00276 (ibrutinib), % inhibition (FGFR3): 31.81% | 1 µM GBD00276 (ibrutinib), % inhibition (CDK5/P25): 18.4% | 1 µM GBD00276 (ibrutinib), % inhibition (PDGFRA): 34.54% | 1 µM GBD00276 (ibrutinib), % inhibition (IRAK4): 1.168% | 1 µM GBD00276 (ibrutinib), % inhibition (MNK2): -1.826% | 1 µM GBD00276 (ibrutinib), % inhibition (PDK1): 7.444% | 1 µM GBD00276 (ibrutinib), % inhibition (DCLK1/DCAML1): -29.46% | 1 µM GBD00276 (ibrutinib), % inhibition (PAK3): 14.04%
